From ChEMBL document CHEMBL1201862, “PubChem BioAssay data set” (2004)
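Interpolation was linear, between the two tested concentrations surrounding the appropriate level; five concentrations were tested over 48 hours in 96-well plates. GI50 marks 50% less growth.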 Activity calls are given as the source filed them. Cut-off read from the data, not from the text of the source: active = GI50 up to about 1.1 µM and inactive = higher.

What was measured:
Assay in all cases: DTP human tumour cell line panel, 48 h
A498 = system: A498
ACHN = system: ACHN
DMS-114 = system: DMS-114
HOP-62 = system: HOP-62
KM-20L2 = system: KM-20L2
M19-MEL = system: M19-MEL
Malme-3M = system: Malme-3M
NCI-H460 = system: NCI-H460
SK-MEL-2 = system: SK-MEL-2
SNB-19 = system: SNB-19
TK-10 = system: TK-10
UACC-257 = system: UACC-257
XF498 = system: XF498

Measured: GI50

O=c1[nH]c(=O)n(C2CC(O)C(CO)O2)cc1C(OCC(F)(F)F)OCC(F)(F)F (configuration not stated)
inactive: A498 > 100 µM | ACHN > 100 µM | DMS-114 > 100 µM | HOP-62 > 100 µM | KM-20L2 > 100 µM | M19-MEL > 100 µM | Malme-3M > 100 µM | NCI-H460 > 100 µM | SK-MEL-2 > 100 µM | SNB-19 > 100 µM | TK-10 > 100 µM | UACC-257 > 100 µM | XF498 > 100 µM

CN(C)C(=S)/N=c1\ssc(=S)n1C
inactive: A498 > 100 µM | ACHN > 100 µM | DMS-114 > 100 µM | HOP-62 > 100 µM | KM-20L2 > 100 µM | M19-MEL > 100 µM | Malme-3M > 100 µM | NCI-H460 > 100 µM | SK-MEL-2 > 100 µM | SNB-19 > 100 µM | TK-10 > 100 µM | UACC-257 > 100 µM | XF498 > 100 µM

COc1ccc2nc3cc(Cl)ccc3c(Sc3ccc(N)cc3)c2c1
inactive: A498 29.1 µM | ACHN 10.1 µM | DMS-114 4.99 µM | HOP-62 24.2 µM | KM-20L2 4.59 µM | M19-MEL 7.62 µM | Malme-3M 15 µM | NCI-H460 7.98 µM | SK-MEL-2 13.8 µM | SNB-19 16.9 µM | TK-10 13.2 µM | UACC-257 13.2 µM | XF498 14.2 µM

N#C/N=N/c1cc(Cl)c(/N=N/C#N)cc1Cl
inactive: A498 > 100 µM | ACHN > 100 µM | DMS-114 > 100 µM | HOP-62 > 100 µM | KM-20L2 > 100 µM | M19-MEL > 100 µM | Malme-3M > 100 µM | NCI-H460 > 100 µM | SK-MEL-2 > 100 µM | SNB-19 > 100 µM | TK-10 > 100 µM | UACC-257 > 100 µM | XF498 > 100 µM
